Measured values from patent US20250093263A1, “FRET-BASED ASSAYS” (The General Hospital Corporation, priority 2021, published 2025).

Assays:
BRD4(BD2) = target: T1, BRD4(BD2) (Homo sapiens, UniProt O60885); assay: TR-FRET saturation binding of JQ1-FITC, BRD4(BD2); settings: 0.5 nM GST-BRD4(BD2), 2 nM CoraFluor-1-labeled anti-GST VHH; read-out: KD,app BRD4(BD2)
T1 construct: validated for its applicability with individual recombinant bromodomains BRD4(BD1) and BRD4(BD2); purchased Epicypher, Inc 15-0013
Method: (§1) TR-FRET measurements: unless otherwise noted, experiments were performed in white, 384-well microtiter plates (Corning 3572) in 30 μL assay volume. […] The 490/10 and 520/10 emission channels were acquired with a 50% mirror and a dichroic 510 mirror, respectively, using independently optimized detector gain settings unless specified otherwise. The TR-FRET ratio was taken as the 520/490 nm intensity ratio on a per-well basis.
(§2) Determination of apparent equilibrium dissociation constant (KD,app) of JQ1-FITC toward individual recombinant bromodomains and endogenous BRD4 in MCF7 lysate: recombinant BRD4(BD1) and BRD4(BD2) were purchased from BPS Biosciences, Inc and Epicypher, Inc (GST-BRD4(BD1), 31040; GST-BRD4(BD2), 15-0013, respectively). Recombinant bromodomains were diluted to 0.5 nM in assay buffer (25 mM HEPES, 150 mM NaCl, 0.5 mg/mL BSA, 0.005% TWEEN-20, pH 7.5) with 2 nM CoraFluor-1-labeled anti-GST VHH, then JQ1-FITC was added in serial dilution (1:1.6 titration, 15-point, cmax=100 nM) using a D300 digital dispenser (Hewlett-Packard) and allowed to equilibrate for 2 h at room temperature before TR-FRET measurements were taken. Nonspecific signal was determined with 50 μM JQ1-Acid, and data were fitted to a One Site—Specific Binding model in Prism 9.

BRD4(BD1) = target: T2, BRD4(BD1) (Homo sapiens, UniProt O60885); assay: TR-FRET saturation binding of JQ1-FITC, BRD4(BD1); settings: 0.5 nM GST-BRD4(BD1), 2 nM CoraFluor-1-labeled anti-GST VHH; read-out: KD,app BRD4(BD1)
T2 construct: validated for its applicability with individual recombinant bromodomains BRD4(BD1) and BRD4(BD2); purchased BPS Biosciences, Inc 31040
Method: as §1, §2

[1] = system: HsmPheRS (human mitochondrial PheRS); assay: TR-FRET titration of tracer MAT588, HsmPheRS; type: binding
[2] = target: T3, HsmPheRS (human mitochondrial PheRS) (Homo sapiens, UniProt O95363); assay: TR-FRET titration of tracer MAT588, HsmPheRS; type: binding; settings: absence of substrates, titrating
T3 construct: rows headed: HsmPheRS KD; other: absence of substrates, titrating; human mitochondrial PheRS (HisHalo-HsmPheRS); fused on or other part: C-terminal HaloTag, HRV-3C site and His9 tag; the CoraFluor-1 terbium donor is attached through the HaloTag or by direct Pfp labelling
T3 sequence (O95363 42-357 limits assumed): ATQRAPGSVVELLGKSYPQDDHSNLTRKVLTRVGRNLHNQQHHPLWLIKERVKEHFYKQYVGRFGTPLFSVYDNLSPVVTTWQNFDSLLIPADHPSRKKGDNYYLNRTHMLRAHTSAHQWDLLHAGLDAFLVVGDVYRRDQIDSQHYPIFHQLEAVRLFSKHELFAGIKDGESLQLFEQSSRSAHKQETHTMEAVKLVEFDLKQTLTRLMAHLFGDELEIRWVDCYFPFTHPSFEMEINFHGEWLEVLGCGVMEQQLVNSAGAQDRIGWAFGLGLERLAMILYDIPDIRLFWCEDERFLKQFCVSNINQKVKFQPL

[3] = target: T4, HscPheRS (human cytoplasmic PheRS) (Homo sapiens, UniProt Q9Y285); assay: TR-FRET titration of tracer MAT588, HscPheRS; type: binding; settings: absence of substrates
T4 construct: HisHalo-HscPheRS; alpha subunit residues 1-508; beta subunit residues 1-589; made in house; host or cells: E. coli
T4 sequence (Q9Y285 1-508): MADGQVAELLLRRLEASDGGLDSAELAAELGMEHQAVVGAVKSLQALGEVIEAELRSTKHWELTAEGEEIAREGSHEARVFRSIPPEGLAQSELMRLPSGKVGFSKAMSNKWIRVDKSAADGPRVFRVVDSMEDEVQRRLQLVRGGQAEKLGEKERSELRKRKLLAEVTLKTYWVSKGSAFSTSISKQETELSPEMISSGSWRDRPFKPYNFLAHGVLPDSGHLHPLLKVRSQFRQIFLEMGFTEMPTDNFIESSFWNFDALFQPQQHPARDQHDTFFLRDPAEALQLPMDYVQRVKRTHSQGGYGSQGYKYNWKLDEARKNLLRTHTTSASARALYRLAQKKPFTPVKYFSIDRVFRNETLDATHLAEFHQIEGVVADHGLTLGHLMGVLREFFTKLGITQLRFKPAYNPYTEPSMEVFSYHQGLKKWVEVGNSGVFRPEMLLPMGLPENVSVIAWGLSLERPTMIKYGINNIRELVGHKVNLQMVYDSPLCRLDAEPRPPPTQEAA
T4 sequence (Q9NSD9 1-589 partner): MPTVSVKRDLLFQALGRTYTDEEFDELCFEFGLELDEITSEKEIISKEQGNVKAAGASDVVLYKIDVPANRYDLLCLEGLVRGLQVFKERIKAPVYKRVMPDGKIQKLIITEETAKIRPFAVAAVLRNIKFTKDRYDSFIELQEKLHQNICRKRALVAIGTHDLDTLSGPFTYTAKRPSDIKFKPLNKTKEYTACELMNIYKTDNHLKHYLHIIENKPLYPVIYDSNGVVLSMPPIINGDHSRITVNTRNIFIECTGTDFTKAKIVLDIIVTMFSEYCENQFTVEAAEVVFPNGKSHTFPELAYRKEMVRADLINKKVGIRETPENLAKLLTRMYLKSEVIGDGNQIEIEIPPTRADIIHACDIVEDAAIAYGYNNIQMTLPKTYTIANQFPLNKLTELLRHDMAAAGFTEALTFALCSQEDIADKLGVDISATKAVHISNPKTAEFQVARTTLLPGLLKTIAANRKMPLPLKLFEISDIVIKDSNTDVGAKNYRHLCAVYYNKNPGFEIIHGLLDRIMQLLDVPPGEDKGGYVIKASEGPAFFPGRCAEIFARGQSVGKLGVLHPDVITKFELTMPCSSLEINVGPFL

[4] = target: HDAC1-HaloTag in HEK293T cells (Homo sapiens, UniProt Q13547); assay: Cellular TR-FRET target engagement assay, HDAC1-HaloTag in HEK293T cells; type: cell-based; settings: HEK-293T, read-out: Cellular TR-FRET assay SAHA-NCT 1 μM EC50 column: % @ 100
Chain of HDAC1-HaloTag in HEK293T cells (Q13547 whole entry): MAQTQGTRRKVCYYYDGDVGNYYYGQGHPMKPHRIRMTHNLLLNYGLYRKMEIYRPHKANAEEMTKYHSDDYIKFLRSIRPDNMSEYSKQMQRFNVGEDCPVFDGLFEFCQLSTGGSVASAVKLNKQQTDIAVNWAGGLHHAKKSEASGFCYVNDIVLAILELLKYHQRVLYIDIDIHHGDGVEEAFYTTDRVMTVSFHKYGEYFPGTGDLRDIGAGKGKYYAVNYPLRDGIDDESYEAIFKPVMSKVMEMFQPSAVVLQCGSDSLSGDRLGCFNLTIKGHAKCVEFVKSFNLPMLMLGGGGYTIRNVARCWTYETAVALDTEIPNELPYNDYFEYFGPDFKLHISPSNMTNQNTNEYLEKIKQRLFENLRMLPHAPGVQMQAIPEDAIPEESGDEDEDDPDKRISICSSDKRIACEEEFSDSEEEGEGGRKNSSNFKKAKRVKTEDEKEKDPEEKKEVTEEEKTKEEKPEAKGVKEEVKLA
Method: Separately, stock solutions of plasmid DNA (pFC14A-HDAC1-HaloTag; 16 μg/mL) and PEI-MAX (48 μg/mL) were prepared in PBS such that the final volume of each stock solution was 1:20 of the volume of suspension cells in culture media (1:3 w/w DNA:PEI-MAX). The solutions were thoroughly mixed, then the DNA solution was added slowly to the PEI solution and the resulting transfection cocktail (1:10 volume of suspension) was incubated for 20 min at room temperature. The transfection cocktail was added to the cell suspension (final concentrations: 0.8 μg/mL DNA, 2.4 μg/mL PEI-MAX, 350,000 cells/mL) and the 12 mL suspension was added to a 10 cm dish. Cells were grown for 24 h at 37° C. and 5% CO2.
After, media was aspirated and cells were quickly washed with 12 mL phenol red-free DMEM+10% FBS, followed by one 30 min wash at 37° C. and 5% CO2. Cells were washed with PBS, trypsinized, counted, and pelleted.

HDAC1 Recombinant [5] = target: T5, HDAC1 Recombinant (Homo sapiens, UniProt Q13547); assay: TR-FRET assay with recombinant HDAC1; type: binding; settings: 5 nM HDAC1, 2.5 nM Tb-Anti-6xHis IgG, 20 nM SAHA-NCT, 3 h
T5 construct: purchased BPS Bioscience Inc 50051
T5 sequence (Q13547 whole entry): as above

HDAC1-HaloTag = HDAC1-HaloTag (Homo sapiens, UniProt Q13547)
Chain of HDAC1-HaloTag (Q13547 whole entry): as above

HDAC1 Recombinant [6] = target: T5, HDAC1 Recombinant; assay: HDAC1 enzymatic activity assay with recombinant protein; type: biochemical; settings: 5 nM HDAC1, 18 μM MAZ1600 substrate (3 × KM), 3 h incubation
Method: 7-Amino-4-methyl coumarin fluorescence was measured on a Tecan SPARK plate reader: 350/20 nm excitation, 460/10 nm emission.

`Cc1sc2c(c1C)C(c1ccc(Cl)cc1)=NC(CC(=O)NCCCOCCOCCOCCCNC(=S)Nc1ccc(-c3c4ccc(=O)cc-4oc4cc(O)ccc34)c(C(=O)O)c1)c1nnc(C)n1-2` (stereo not shown) [JQ1-FITC, 5-(3-(1-(4-(4-chlorophenyl)-2,3,9-trimethyl-6H-thieno[3,2-f][1,2,4]triazolo[4,3-a][1,4]diazepin-6-yl)-2-oxo-7,10,13-trioxa-3-azahexadecan-16-y)thioureido)-2-(6-hydroxy-3-oxo-3H-xanthen-9-yl)benzoic acid] gave a Kd (BRD4(BD2)) of 5.8 ± 1.5 nM and a Kd (BRD4(BD1)) of 6.5 ± 1.1 nM.

In the case of `Nc1ncnc2c1ncn2[C@@H]1O[C@H](CN(CCCCCCOCCOCCNC(=O)c2ccc(C(=O)O)c(-c3c4ccc(=O)cc-4oc4cc(O)ccc34)c2)S(=O)(=O)NC(=O)[C@@H](N)Cc2ccccc2)[C@@H](O)[C@H]1O` [MAT588, 4-((2-(2-((6-((N-(L-phenylalanyl)sulfamoyl)(((2R,3S,4R,5R)-5-(6-amino-9H-purin-9-yl)-3,4-dihydroxytetrahydrofuran-2-yl)methyl)amino)hexyl)oxy)ethoxy)ethyl)carbamoyl)-2-(6-hydroxy-3-oxo-3H-xanthen-9-yl)benzoic acid], the “selectivity for HsmPheRS over HscPheRS” value [1] is reported as > 1,000 fold, the Kd [2] is reported as under 10 nM and the Kd [3] is reported as over 10000 nM.

`CC(=O)Nc1ccc(C(=O)Nc2ccccc2N)cc1` [CI-994] gave an inhibition at 100 µM [4] of under 5%.

With `O=C(CCCCCCC(=O)Nc1ccc(CNC(=O)c2ccc(C(=O)O)c(C3=c4cc5c6c(c4Oc4c3cc3c7c4CCCN7CCCC3)CCC[N+]=6CCCC5)c2)cc1)NO` [SAHA-NCT] the Kd (HDAC1 Recombinant [5]) was 9 nM, the Kd (HDAC1-HaloTag) was 9 nM and the IC50 (HDAC1 Recombinant [6]) was 8 nM. The Kd (HDAC1 Recombinant [6]) was 2 nM.
